Test results as given in patent publication US4080460A, “Biguanides and therapeutic compositions and uses of the same” (Aron Sarl, priority 1975, dated 1978).
Counter-ions that a name gives are not always drawn. Like-named read-outs stand apart in the source and are kept apart here.

Legend:
Doca rats = experiment: action on the control of blood pressure in Doca rats; type: in vivo, rat; details: oral, 2 × 3 mg/kg
Method: (§1) The above results are confirmed by the results of an investigation of the action on the control of blood pressure. On oral administration of a dosage of 2 × 3 mg/kg of compound to Doca rats (Technique according to Green and co-workers, Am. J. Physiol, 1952, 170, p.94) and to Grollman rats (Techniques according to Grollman, Proc. Soc. Exp. Biol. Med., 1944, 57, p.102), the precent decrease of the systolic blood pressure with respect to its original value is noted.

[1] = acute toxicity investigation in mice; details: mouse, in vivo
Grollman rats = experiment: action on the control of blood pressure in Grollman rats; type: in vivo, rat; details: oral, 2 × 3 mg/kg
Method: as §1

[2] = test system: uptake of ^3 H noradrenalin by the synaptosomes of a rat hypothalamus homogenate; experiment: inhibition of the uptake of ^3 H noradrenalin by the synaptosomes of a rat hypothalamus homogenate; type: biochemical; details: with respect to the control test
Description: The compounds of the formula (I) are capable of modifying the accumulation of noradrenalin and particularly to inhibit the uptake of ^3 H noradrenalin by the synaptosomes of a rat hypothalamus homogenate prepared according to Banerjee, Snyder and Mechoulam (J. Pharmacol. Exp. Ther., 194, 1, 74, 1975). This inhibition of the uptake of ^3 H noradrenaline is a known property of various compounds having an activity on the central nervous system and/or on the sympathetic nervous system, particularly a hypotensive effect (J. Glowinski and J. Axelrod, Effects of Drugs on the Disposition of ^3 H norepinephrine in the Rat Brain, Pharmacological Reviews, Vol. 18, n°1, Part I, 1966).
They are expressed as percent inhibition of the uptake with respect to the control test.

[3] = iv, read-out: LD50 (mg/kg) i.v.
[4] = po, read-out: LD50 (mg/kg) p.o.
[5] = 5 × 10^-4 M ultimate concentration
[6] = 5 × 10^-5 M ultimate concentration
[7] = 5 × 10^-6 M ultimate concentration

| SMILES | percent decrease of the systolic blood pressure with respect to its original value (Doca rats) | LD50 [1, 3] | LD50 [1, 4] | percent decrease of the systolic blood pressure with respect to its original value (Grollman rats) | inhibition % of the uptake of ^3 H noradrenalin [2, 5] | inhibition % of the uptake of ^3 H noradrenalin [2, 6] | inhibition % of the uptake of ^3 H noradrenalin [2, 7] |
| --- | --- | --- | --- | --- | --- | --- | --- |
| Cc1cc(NC(=N)NC(=N)N)no1 [Example 1, (5-methyl-isoxazol-3-yl)biguanide hydrochloride] | 25% | 115 mg/kg | 700 mg/kg | 20% |  |  |  |
| CNC(=N)NC(=N)Nc1cc(C)on1 [Example 2, 1-methyl-5-(5-methyl-isoxazol-3-yl)biguanide] |  |  | 900 mg/kg |  | 53.6% |  |  |
| Cc1cc(NC(=N)NC(=N)N(C)C)no1 [Example 3] |  | 140 mg/kg | 800 mg/kg | 10% | 47.9% |  |  |
| CCc1cc(NC(=N)NC(=N)N)no1 [Example 4] |  | 45 mg/kg | 500 mg/kg |  | 52.7% |  |  |
| CCCCc1cc(NC(=N)NC(=N)N)no1 [Example 5] | 10% |  | 600 mg/kg |  | 69.5% |  |  |
| CC(C)c1cc(NC(=N)NC(=N)N)no1 [Example 6] |  |  | 200 mg/kg |  |  | 54.6% |  |
| Cc1cc(N(C)C(=N)NC(=N)N)no1 [Example 7] | 15% |  |  |  | 48.1% |  |  |
| Cc1conc1NC(=N)NC(=N)N [Example 8] | 15% | 70 mg/kg | 300 mg/kg | 15% |  | 55% | 36% |
| N=C(N)NC(=N)Nc1ccon1 [Example 9] |  | > 150 mg/kg | > 1000 mg/kg |  | 68.6% |  |  |
| Cc1onc(N(C)C(=N)NC(=N)N)c1C [Example 10] |  | 100 mg/kg | > 500 mg/kg |  | 19.5% |  |  |
| Cc1conc1NC(=N)NC(=N)N(C)C [Example 11] | 15% | 40 mg/kg | 300 mg/kg |  | 60.1% |  |  |
| CCCCNC(=N)NC(=N)Nc1cc(C)on1 [Example 13] |  | 35 mg/kg | 250 mg/kg |  | 63.1% |  |  |
| CCc1conc1NC(=N)NC(=N)N [Example 14] |  |  | 500 mg/kg |  |  | 61.8% | 46.5% |
| CCN(C(=N)NC(=N)N)c1cc(C)on1 [Example 16] |  |  | > 750 mg/kg |  | 37.9% |  |  |
| Cc1cc(NC(=N)NC(=N)N2CCN(C)CC2)no1 [Example 19] |  | 100 mg/kg | 2000 mg/kg | 20% | 53.8% |  |  |
| Cc1cc(NC(=N)NC(=N)N2CCOCC2)no1 [Example 20] |  | 100 mg/kg | 750 mg/kg |  | 46.6% |  |  |
| Cc1noc(NC(=N)NC(=N)N(C)C)c1C [Example 22] |  |  | 700 mg/kg |  | 38.1% |  |  |
